Source: patent US10757944B2, “Ozone treatment for elimination of pathogens” (priority 2016, dated 2020)
Where “and” joins values, the source holds several entries; their conditions need not be identical. Equal values may be shown once.

Tests used:
Assay type in all cases: cell-based
[1] = system: Escherichia Coli, Salmonella enterica sv typhimurium, Listeria monocytogenes and Candida albicans; experiment: Gaseous ozone treatment of inoculated Cannabis, summary statements for all organisms
Method: (§1) Cannabis plants were individually contaminated with Escherichia Coli, Salmonella enterica sv typhimurium, Listeria monocytogenes and Candida albicans then exposed to gaseous ozone for 20 minutes at 100 ppm and 200 ppm.
(§2) Pure cultures of Escherichia coli and Listeria monocytogenes provided by the American Type Culture Collection (ATCC) were grown in selective media broths. The Candida albicans provided by ATCC was grown on potato dextrose agar, and after significant growth was achieved, the colonies were transferred and suspended in Butterfield's buffer. After significant turbidity in each broth of pathogens was observed, they, along with Butterfield's buffer with the suspended Candida albicans, were used to inoculate individual Cannabis samples. This process created four individual populations of Cannabis with each population being contaminated with one of the four organisms grown. After inoculating the samples they were allowed to dry overnight by placing them out in the open at room temperature. Each population of Cannabis was then divided into smaller individual 2-4 gram samples which were used in the tests. One test consisted of placing nearly half of the smaller samples into an ozone gas chamber for 20 minutes at an approximate ozone concentration of 100 ppm. The remaining samples were set aside to be used as controls.
(§3) Three samples for each organism were tested at each of the concentrations. The control samples were placed into the same chamber for 20 minutes with an ozone concentration of 0 ppm. All samples were then analyzed for their microbial counts by first generating serial dilution using Butterfield's buffer as the diluent for each sample then individually plating the resultant dilutions onto selective media appropriate for the organism being analyzed. After the required incubation temperatures and times were completed, the organisms on the plates were counted. For each set of dilutions of a given sample and starting at the plate representing the lowest dilution ratio, the first plate that was countable was counted and the result was recorded. […]

total yeast and mold = experiment: Total yeast and mold on homogenized cannabis flower after ozone exposure (3M Petrifilm Rapid Yeast and Mold Count Plate); conditions: for Average CFU/g (all samples tested) of yeast and mold remaining: 0 minutes: 68,000
Method: The ability of ozone to reduce fungus using an embodiment of a disclosed pathogen reduction device was also evaluated. In this series of experiments, homogenized cannabis flower with a total yeast and mold bio-burden exceeding 10,000 CFU/g was exposed to ozone using an embodiment of a disclosed pathogen reduction device. 20 gram samples of the cannabis flower were separated into two groups (10 grams a group) and placed on different racks within the pathogen reduction device. One 10 gram sample was placed on an industrial grade aluminum rack with air holes in order to maximize ozone flow and increase the surface area of the flower that would be exposed to ozone. A second 10 gram sample was place directly onto a rack screen (aluminum foil with holes pocked into it); however, because some of the homogenized cannabis flower was finer than the rack screen, some flower from the second 10 gram sample passed through the rack screen and landed on the lowest mesh screen in the device, thereby, creating a third sample for testing.
20 gram samples as described above were exposed to ozone for 0 minutes (control), 20 minutes, 30 minutes, 45 minutes, and 60 minutes at an ozone concentration of 200 ppm. Six 1 gram samples from each treatment time were processed and evaluated using a 3M® Petrifilm® Rapid Yeast and Mold Count Plate and accompanying Product Instructions. The ozone treated samples were homogenized, diluted with buffer (distilled water), and then 1 milliliter suspension samples were dispensed onto 3M® Petrifilm® Rapid Yeast and Mold Count Plates. The plates were incubated at 27° C. for greater than 60 hours in order to quantify the total yeast and mold remaining on the cannabis flower following exposure to ozone. Three of the six 1 gram samples were taken from the flower placed on the industrial grade aluminum rack as detailed above. Two of the 1 gram samples were taken from the flower placed directly on the screen. The final 1 gram sample was collected from the lowest mesh screen in the device where the finest flower collected after falling through the rack screen.

CFUs on cannabis flower = experiment: Exposure of cannabis flower to 200 ppm ozone, CFU reduction; conditions: between about 20 minutes and 90 minutes
[2] = system: Salmonella enterica sv typhimurium; experiment: Gaseous ozone treatment of Cannabis inoculated with Salmonella, microbial count; conditions: for kill of bacterial pathogen (in words): 20 minutes; for Microbial Count: 20 min
Method: as §1, §2
(§4) Three samples for each organism were tested at each of the concentrations. The control samples were placed into the same chamber for 20 minutes with an ozone concentration of 0 ppm. All samples were then analyzed for their microbial counts by first generating serial dilution using Butterfield's buffer as the diluent for each sample then individually plating the resultant dilutions onto selective media appropriate for the organism being analyzed. After the required incubation temperatures and times were completed, the organisms on the plates were counted. For each set of dilutions of a given sample and starting at the plate representing the lowest dilution ratio, the first plate that was countable was counted and the result was recorded.
(§5) Testing occurred over two days. The first day involved testing one sample of Cannabis for each organism at an ozone concentration of 100 ppm and another test of only Listeria at 50 ppm. Additional testing involving subsequent trials for each organism at ozone concentrations of 100 ppm and 200 ppm were conducted on the second day of testing.
(§6) The ozone concentration in the ozone chamber was kept at a range approximating the desired 100 ppm and 200 ppm concentrations. For instance, when the desired concentration was 100 ppm, the actual range of concentrations was 98 ppm to 106 ppm, and when the desired concentration was 200 ppm, the actual range of concentration was 198 ppm to 204 ppm. […]

Candida albicans = experiment: Gaseous ozone treatment of Cannabis inoculated with Candida, microbial count; conditions: for Microbial Count: 20 min
Method: as §1, §2, §4, §5, §6

mold and yeast = experiment: Additional ozone exposure tests on cannabis flower or trim, mold and yeast CFU; conditions: ozone 200 ppm
Method: Some additional ozone exposure tests were performed with cannabis flower or trim on a variety of commercially available strains using an embodiment of a disclosed pathogen reduction device. In each experiment (disclosed in Table 6) a reduction of mold and yeast CFU/g was measured (as disclosed above using 3M® Petrifilm® Rapid Yeast and Mold Count Plate and Product Instruction) after treating different weights of cannabis with an ozone concentration of 200 ppm for between 20 and 60 minutes.

Escherichia Coli = experiment: Gaseous ozone treatment of Cannabis inoculated with E. Coli, microbial count
Method: as §1
Pure cultures of Escherichia coli and Listeria monocytogenes provided by the American Type Culture Collection (ATCC) were grown in selective media broths. The Candida albicans provided by ATCC was grown on potato dextrose agar, and after significant growth was achieved, the colonies were transferred and suspended in Butterfield's buffer. After significant turbidity in each broth of pathogens was observed, they, along with Butterfield's buffer with the suspended Candida albicans, were used to inoculate individual Cannabis samples. […]
as §3, with “The control samples were placed into the same chamber for 20 minutes with an ozone concentration of 0 ppm.” left out

O=[O+][O-] [ozone]
kill of all of the organisms involved in the test (in words) ([1]; 100 ppm ozone, first day (Table 1)): significant kill
kill of all organisms compared to the controls (in words) ([1]; 100 ppm ozone, second day (Table 2)): significant kill
kills at 200 ppm compared to the kills at 100 ppm (in words) ([1]; 200 ppm ozone, second day (Table 2)): amount of kills increased
decrease in total yeast and mold bio-burden (total yeast and mold; 200 ppm ozone for 60 minutes): 92%
average Colony Forming Units/gram after treatment (total yeast and mold; 200 ppm ozone for 60 minutes, dropping from an average of 82,000 CFU/g): 7,000 CFR/g
Average CFU/g (all samples tested) of yeast and mold remaining (total yeast and mold; 200 ppm ozone, 20 minutes): 18,000 CFU/g
CFU/g (Test 1) (total yeast and mold; 200 ppm ozone, 20 minutes, Industrial grade aluminum rack (samples 4-6), T0: 25,000, 60,000, 82,000): 19,000 CFU/g and 12,000 CFU/g and 21,000 CFU/g
CFU/g (Test 2) (total yeast and mold; 200 ppm ozone, 20 minutes, Industrial grade aluminum rack (samples 4-6), T0: 53,000, 140,000, 130,000): 23,000 CFU/g and 18,000 CFU/g and 21,000 CFU/g
CFU/g (Test 2) (total yeast and mold; 200 ppm ozone, 20 minutes, Lowest mesh screen (sample 1), T0: 61,000): 24,000 CFU/g
CFU/g (Test 1) (total yeast and mold; 200 ppm ozone, 20 minutes, Lowest mesh screen (sample 1), T0: 77,000): 18,000 CFU/g
CFU/g (Test 2) (total yeast and mold; 200 ppm ozone, 20 minutes, Rack screen (samples 2-3), T0: 28,000, 77,000): 16,000 CFU/g and 17,000 CFU/g
CFU/g (Test 1) (total yeast and mold; 200 ppm ozone, 20 minutes, Rack screen (samples 2-3), T0: 30,000, 50,000): 15,000 CFU/g
Average CFU/g (all samples tested) of yeast and mold remaining (total yeast and mold; 200 ppm ozone, 30 minutes): 17,000 CFU/g
CFU/g (Test 1) (total yeast and mold; 200 ppm ozone, 30 minutes, Industrial grade aluminum rack (samples 4-6), T0: 25,000, 60,000, 82,000): 16,000 CFU/g and 11,000 CFU/g and 20,000 CFU/g
CFU/g (Test 2) (total yeast and mold; 200 ppm ozone, 30 minutes, Industrial grade aluminum rack (samples 4-6), T0: 53,000, 140,000, 130,000): 15,000 CFU/g and 14,000 CFU/g and 20,000 CFU/g
CFU/g (Test 2) (total yeast and mold; 200 ppm ozone, 30 minutes, Lowest mesh screen (sample 1), T0: 61,000): 20,000 CFU/g
CFU/g (Test 1) (total yeast and mold; 200 ppm ozone, 30 minutes, Lowest mesh screen (sample 1), T0: 77,000): 16,000 CFU/g
CFU/g (Test 2) (total yeast and mold; 200 ppm ozone, 30 minutes, Rack screen (samples 2-3), T0: 28,000, 77,000): 30,000 CFU/g and 16,000 CFU/g
CFU/g (Test 1) (total yeast and mold; 200 ppm ozone, 30 minutes, Rack screen (samples 2-3), T0: 30,000, 50,000): 18,000 CFU/g and 13,000 CFU/g
Average CFU/g (all samples tested) of yeast and mold remaining (total yeast and mold; 200 ppm ozone, 45 minutes): 16,000 CFU/g
CFU/g (Test 2) (total yeast and mold; 200 ppm ozone, 45 minutes, Lowest mesh screen (sample 1), T0: 61,000): 11,000 CFU/g
CFU/g (Test 1) (total yeast and mold; 200 ppm ozone, 45 minutes, Lowest mesh screen (sample 1), T0: 77,000): 7,100 CFU/g
CFU/g (Test 2) (total yeast and mold; 200 ppm ozone, 45 minutes, Rack screen (samples 2-3), T0: 28,000, 77,000): 15,000 CFU/g and 12,000 CFU/g
CFU/g (Test 1) (total yeast and mold; 200 ppm ozone, 45 minutes, Rack screen (samples 2-3), T0: 30,000, 50,000): 13,000 CFU/g and 11,000 CFU/g
Average CFU/g (all samples tested) of yeast and mold remaining (total yeast and mold; 200 ppm ozone, 60 minutes): 6,000 CFU/g
CFU/g (Test 2) (total yeast and mold; 200 ppm ozone, 60 minutes, Lowest mesh screen (sample 1), T0: 61,000): 9,000 CFU/g
CFU/g (Test 1) (total yeast and mold; 200 ppm ozone, 60 minutes, Lowest mesh screen (sample 1), T0: 77,000): 7,400 CFU/g
CFU/g (Test 2) (total yeast and mold; 200 ppm ozone, 60 minutes, Rack screen (samples 2-3), T0: 28,000, 77,000): 10,000 CFU/g and 6,300 CFU/g
CFU/g (Test 1) (total yeast and mold; 200 ppm ozone, 60 minutes, Rack screen (samples 2-3), T0: 30,000, 50,000): 6,000 CFU/g and 7,800 CFU/g
additional reduction in CFU/g (total yeast and mold; 200 ppm ozone, after the first 20 minutes and up until 45 minutes): 1.1%
another reduction in CFU/g (total yeast and mold; 200 ppm ozone, between a 45 minute and 60 minute exposure): 14.1%
yeast and mold across all 6 samples following treatment (total yeast and mold; 200 ppm ozone, from roughly 10^5 CFU/g): below 10,000 CFU/g
inhibition of fungi by ozone exposure (in words) (total yeast and mold; Table 4, 200 ppm ozone, 20-60 minutes): strongly inhibited
reduction of CFUs (CFUs on cannabis flower): 100,000 to 150,000 CFUs per hour
kill of bacterial pathogen (in words) ([2]; 100 ppm ozone, compared with 200 ppm): lesser kill rate
kill of bacterial pathogen (in words) ([2]; 200 ppm ozone): Significant kills
Microbial Count ([2]; first day, target ozone 100 ppm (actual 95-102 ppm), control (0 ppm) 1.1 * 10^11): 1.7 * 10^10 cfu/g
Microbial Count ([2]; second day, ozone 100 ppm (98-106 ppm), Trials 2-3, control 4.5 * 10^4): 1.1 * 10^4 cfu/g and 1.3 * 10^4 cfu/g
effect of ozone treatment on Candida albicans (in words) (Candida albicans; 100 ppm and 200 ppm ozone, 20 minutes): limited
microbial count of 200 ppm trials compared with the control group (in words) (Candida albicans; 200 ppm ozone, 20 minutes, FIG. 10): average reduced microbial count
Microbial Count (Candida albicans; listed as 'Mold Treated', first day, target ozone 100 ppm (actual 95-102 ppm), Mold Control (0 ppm) 1.4 * 10^12): 1.9 * 10^11 cfu/g
Microbial Count (Candida albicans; second day, ozone 100 ppm (98-106 ppm), Trials 2-3, control 5.0 * 10^5): 2.7 * 10^5 cfu/g and 1.5 * 10^4 cfu/g
Ending CFU (mold and yeast; Flower, Hybrid, 5 lbs, 60:00 min, Initial CFU 77,000): 4500 CFU
Ending CFU (mold and yeast; Flower, Hybrid/Indica, 1 lb, 45:00 min, Initial CFU 2,200): 220 CFU
Ending CFU (mold and yeast; Flower, Hybrid/Indica, 6 lbs, 25:00 min, Initial CFU 51,750): 30,000-32,000 CFU
Ending CFU (mold and yeast; Flower, Hybrid/Indica, weight NA, 60:00 min, Initial CFU 110,000): 3,000 CFU
Ending CFU (mold and yeast; Flower, Hybrid/Sativa, 1 lb, 20:00 min, Initial CFU 100,000): 5,400-5,500 CFU
Ending CFU (mold and yeast; Flower, Indica, 3 lbs, 60:00 min, Initial CFU 320,000): 91,000 CFU
Ending CFU (mold and yeast; Trim, Hybrid/Indica, 6 lbs, 25:00 min, Initial CFU 17,000): 800-11,000 CFU
Ending CFU (mold and yeast; Trim, Hybrid/Sativa, 3 lbs, 60:00 min, Initial CFU 50,000): 3,000 CFU
kill of Escherichia coli (in words) (Escherichia Coli; both 100 ppm and 200 ppm ozone, 20 minutes): significantly vulnerable
Microbial Count (Escherichia Coli; first day, target ozone 100 ppm (actual 95-102 ppm), 20 min, control (0 ppm) 1.2 * 10^11): 2.8 * 10^10 cfu/g
